Measurements as given in patent US20160287497A1, “USE AS A DEODORANT AGENT OF A SALIFIED SALICYLIC ACID DERIVATIVE, ALONE OR IN A MIXTURE” (L'OREAL, priority 2013, published 2016).

Experiments:
Corynebacterium xerosis = test: Effect on Corynebacterium xerosis: growth inhibition in microplate, MIC; assay type: cell-based
Procedure: • Test principle: contacting of decreasing concentrations of compounds under evaluation with an identical inoculum of microorganisms in a culture medium suitable for the growth of C. xerosis.
The dilutions of the compounds under evaluation are performed in agar at 1:1000, making it possible, for dispersible compounds under evaluation, to do away with the use of a solvent which could introduce bias in the evaluation of the compounds. The concentration range chosen was: 1%, 0.3%, 0.03% and 0.003%. Each concentration was tested in triplicate.
To ensure that the potential inhibitory activity was not associated with a pH effect, the pH of the culture medium was verified at the end of incubation.
The compound mixtures M0 and M2 were evaluated based on this protocol, along with n-octanoyl-5-salicylic acid (comparison).

[1] = Anti-odor effect: ex-vivo olfactory evaluation test on incubated sweat
Procedure: The deodorant activity was evaluated in the ex-vivo olfactory evaluation test, on incubated sweat.
Each compound under evaluation was introduced at a rate of 0.3 mg into 1 mL of sweat. The compounds under evaluation were weighed in 25 or 30 mL pill bottles and 1 mL from a pool of fresh sweat was then added. The pill bottles were hermetically sealed and placed in an incubator at 35° C. for 24 hours. After being removed from the incubator, the pill bottles were opened and allowed to cool to ambient temperature.
A panel of sixteen people performed an olfactory analysis of each pill bottle. The efficacy of each compound evaluated was determined in comparison to a negative control (incubated sweat alone).

CCCCCCCC(=O)c1ccc(O)c(C(=O)O)c1 [N-octanoyl-5-salicylic acid, n-octanoyl-5-salicylic acid]
MIC C. xerosis (Corynebacterium xerosis; incubation 24 to 48 hours, Optical Density 620 nm vs growth control, range tested 1%, 0.3%, 0.03%, 0.003%, triplicate): <0.003% | growth of C. xerosis (result in words) (Corynebacterium xerosis; same protocol as Table 1): inhibit the growth of C. xerosis | % Variation incubated sweat intensity ([1]; 0.3 mg in 1 mL of sweat, 35° C. for 24 hours, panel of sixteen people, vs incubated sweat alone): −57% | unpleasant odor of incubated sweat (result in words) ([1]; same protocol as Table 2): reduce the unpleasant odor of incubated sweat
